Test results as given in patent US20190381337A1, “BORON NEUTRON CAPTURE THERAPY SYSTEM” (NEUBORON MEDTECH LTD., priority 2016, published 2019).

Tests used:
U343mga cells [1] = assay: Cell uptake of boron compounds (Example 2); type: cell-based, human; conditions: for boron content expressed as a function of the total cellular protein, Trial 1 / boron content expressed as a function of the total cellular protein, Trial 2: 6 hours incubation, 5×10^−4 mol/L boron; for boron content expressed as a function of the total cellular protein, Trial 1: 7.2 μg boron/mL media; for boron content expressed as a function of the total cellular protein, Trial 2: 7.7 μg boron/mL media
Protocol: (§1) An in vitro test of the Phe-BF3 of the Example 1 uses four different human-derived tumor cell lines U343mga, human liver cancer cell line Hep3B, human breast cancer cell line MCF7 and human Sarcoma cell line 4SS. Cells were plated on uncoated tissue culture dishes and incubated at 37° C. in an incubator with humidified air equilibrated with 5% CO2 (the medium was supplemented with 10% FCS and PEST (Penicillin 100 IU/mL and streptomycin […])). For cell passage, cells were trypsinized with trypsin-EDTA (phosphate buffered saline (PBS) with 0.25% trypsin and 0.02% EDTA, no calcium and magnesium).
U343mga cells were plated on Petri dishes at a cell density of 75% and incubated for 6 hours with 1,4-dihydroxyborylphenylalanine (BPA) or Phe-BF3 dissolved in tissue culture medium. Both boron-containing compounds were added at an equimolar concentration relative to the boron content (5×10^−4 mol/L boron) and dissolved in tissue culture medium. Incubation was terminated by removing the boron containing tissue culture medium and adding cold phosphate buffered saline solution (PBS buffer) in order to wash away excess medium from the cells. Cells were immediately harvested by scooping off from the petri dishes using rubber policeman, and collected in cold PBS and pelleted by centrifugation.
Total protein analysis was performed on cell samples according to the Bradford standard procedure. The precipitated cells were subjected to boron analysis by DC-plasmon atomic emission spectroscopy (DCP-AES). The sample (50-130 mg) was digested with sulfuric acid/nitric acid (1/1) at 60° C. Triton X-100 and water were added to give concentrations of 50 mg tissue/mL, 15% total acid v/v, and 5% Triton X-100 v/v. The boron concentration is based on known control sample.

U343mga cells [2] = assay: Intracellular retention of boron (Example 4); type: cell-based, human; conditions: for Boron content in U343mga cells, 0 h after removal of the boron-containing medium / Boron content in U343mga cells, 2 h after removal of the boron-containing medium / Boron content in U343mga cells, 7 h after removal of the boron-containing medium: 18 hours incubation, 5×10^−4 mol/L boron
Protocol: U343mga cells were plated on Petri dishes at a cell density of 75% and incubated for 18 hours with 1,4-dihydroxyboron-phenylalanine (BPA) or Phe-BF3 in tissue culture medium. Both boron compounds were added to the tissue culture medium at equimolar concentrations relative to the boron content (5×10^−4 mol/L boron). The incubation was terminated by replacing the boron-containing medium with a boron-free medium. Cell samples were taken at time points 0, 2 and 7 hours, respectively, where the 0 time point represented the time point when the incubation with the boron compound reached just 18 hours.
The cells were washed with cold PBS and immediately harvested by scooping off from the petri dish using rubber policeman, and collected in cold PBS and pelleted by centrifugation. The cell pellets were analyzed for total protein and boron content as described above. With intracellular uptake, the compound of formula (I) retained in the tumor cells was 50% of the total uptake at 7 h after the complete consumption of Ia in the medium.

U343mga = assay: Uptake of Phe-BF3 by different tumor cells (Example 3); type: cell-based, human
Protocol: as §1
(§2) Four human-derived, different tumor cell lines: U343mga, Hep3B, MCF7, and 4SS were plated on Petri dishes at 40-50% (low) and 90-100% (high) cell densities, and incubated with Phe-BF3 in tissue culture as described above for 6 hours. Incubation was terminated by removing the boron-containing media and adding cold PBS buffer to wash excess media from the cells. Cells were immediately harvested by scooping off from the petri dishes using rubber policeman, and collected in cold PBS and pelleted by centrifugation. Total protein analysis was performed on cell samples according to the Bradford standard procedure (as described above).

[3] = test system: human Sarcoma cell line 4SS; assay: as above; type: cell-based; conditions: 6 hours
Protocol: as §1, §2

[4] = test system: human breast cancer cell line MCF7; assay: as above; type: cell-based; conditions: 6 hours
Protocol: as §1, §2

[5] = test system: human liver cancer cell line Hep3B; assay: as above; type: cell-based; conditions: 6 hours
Protocol: as §1, §2

[6] = test system: mouse fibroblast L-929 cells; assay: Cytotoxicity study, MTT colorimetry (Example 5); type: cell-based; conditions: for Relative cell proliferation RGR: 5 mmol/L, MTT
Protocol: The cell culture fluid containing the peptide bovine serum was incubated at 37 C for 24 hours. The passage cultured mouse fibroblast L-929 cells were used to prepare a cell suspension of 1×10^5 cells/mL, and the cell suspension was seeded on a 96-well cell culture plate (100 μl/well) and cultured in a carbon dioxide incubator at 37° C. for 24 hours. After the cells adhere to the wall, the supernatant was removed, the control solution (in absence of compound Ia) was added, and the culture solution of the test group (Phe-BF3 concentration of 5 mmol/L) was exchanged, and the culture was continued in the carbon dioxide incubator at 37° C. After 2 days, MTT solution was added to continue culture for 4 hours. The original solution was aspirated and DMSO was added and shaken for 10 min. The absorbance value was measured with an enzyme-linked immunometric instrument at a wavelength of 630 nm, and the relative proliferation rate (RGR) of the cells was calculated according to the absorbance according to the formula.

## N[C@@H](CC1(BO)C=CC(BO)=CC1)C(=O)O (stereo partly drawn) [BPA, 1,4-dihydroxyborylphenylalanine, reference compound]
U343mga cells [1]
  boron content expressed as a function of the total cellular protein, Trial 1: 62
  boron content expressed as a function of the total cellular protein, Trial 2: 39
U343mga cells [2]
  Boron content in U343mga cells, 0 h after removal of the boron-containing medium: 0.072 μg boron/g cell pellet
  Boron content in U343mga cells, 2 h after removal of the boron-containing medium: 0 μg boron/g cell pellet
  Boron content in U343mga cells, 7 h after removal of the boron-containing medium: 0 μg boron/g cell pellet

## [NH3+]C(Cc1ccccc1)[B-](F)(F)F (stereo not drawn) [Phe-BF3]
U343mga cells [1]; 6 hours
  boron uptake compared with BPA: better than boron phenylalanine (BPA) in boron uptake
U343mga cells [1]
  boron content expressed as a function of the total cellular protein, Trial 1: 549
  boron content expressed as a function of the total cellular protein, Trial 2: 421
U343mga; U343mga, 40-50% cell density, 6 hours
  boron content as a function of the total cellular protein, low cell density: 102 μg boron/g cell protein
U343mga; U343mga, 90-100% cell density, 6 hours
  boron content as a function of the total cellular protein, high cell density: 178 μg boron/g cell protein
U343mga; all four human tumor cell lines at low and high cell densities
  efficiency as boron carrier: highly efficient boron carrier
[3]; 40-50% cell density
  boron content as a function of the total cellular protein, low cell density: 255 μg boron/g cell protein
[3]; 90-100% cell density
  boron content as a function of the total cellular protein, high cell density: 343 μg boron/g cell protein
[4]; MCF7, 40-50% cell density
  boron content as a function of the total cellular protein, low cell density: 101 μg boron/g cell protein
[4]; MCF7, 90-100% cell density
  boron content as a function of the total cellular protein, high cell density: 167 μg boron/g cell protein
[5]; 40-50% cell density
  boron content as a function of the total cellular protein, low cell density: 149 μg boron/g cell protein
[5]; 90-100% cell density
  boron content as a function of the total cellular protein, high cell density: 207 μg boron/g cell protein
U343mga cells [2]
  Boron content in U343mga cells, 0 h after removal of the boron-containing medium: 0.83 μg boron/g cell pellet
  Boron content in U343mga cells, 2 h after removal of the boron-containing medium: 0.56 μg boron/g cell pellet
  Boron content in U343mga cells, 7 h after removal of the boron-containing medium: 0.41 μg boron/g cell pellet
U343mga cells [2]; summary of Examples 2-4, in vitro
  tumor cell uptake, accumulation, and retention compared with BPA: superior to BPA in tumor cell uptake, accumulation, and retention
[6]; 2 days
  Relative cell proliferation RGR: 123%
[6]; 7 days
  Relative cell proliferation RGR: 102%
[6]; graded by RGR (Table 5)
  cytotoxicity assessment: no signs of toxicity
